Results taken from ChEMBL document CHEMBL4130372, “The antitrypanosomal and antitubercular activity of some nitro(triazole/imidazole)-based aromatic amines” (Eur J Med Chem, 2017).
Values after ≈ are worked out from the molar mass of the structure shown. Active and inactive are the calls of the source. The rule behind the calls is not given here.

How the values were obtained:
Trypanosoma cruzi [1] = test: Potency index, ratio of benznidazole IC50 to compound IC50 for Trypanosoma cruzi Tulahuen C4; type: functional
[2] = Selectivity index, ratio of IC50 for rat L6 cells to IC50 for blood stream form of Trypanosoma brucei rhodesiense STIB900; type: toxicity; details: read-out: Ratio IC50
[3] = Selectivity index, ratio of IC50 for rat L6 cells to IC50 for […] amastigotes infected in rat L6 cells; type: toxicity, cell-based; details: read-out: Ratio IC50
L6 = test: Cytotoxicity against rat L6 cells assessed as reduction in cell viability after 2 days by cell-titer-glo luminescent assay; type: cell-based; details: L6, 48 h
Trypanosoma cruzi [4] = test: Antitrypanosomal activity against Trypanosoma cruzi Tulahuen C4 amastigotes infected in rat L6 cells after 96 hrs by CPRG/nonidet-based inverted microscopic analysis; type: functional, organism-based; details: Tulahuen C4, L6, 96 h
[5] = test system: Trypanosoma brucei rhodesiense; test: Antitrypanosomal activity against blood stream form of Trypanosoma brucei rhodesiense STIB900 trypomastigotes after 72 hrs by Alamar Blue assay; type: functional, organism-based; details: STIB900, 72 h
[6] = test system: Mycobacterium tuberculosis; test: Antitubercular activity against Mycobacterium tuberculosis H37Rv ATCC 27294 expressing luxABCDE operon at 100 uM incubated for 10 days under hypoxic conditions followed by incubation under aerobic conditions for 28 hrs by LORA method; type: functional
[7] = test system: Mycobacterium tuberculosis; test: Antitubercular activity against Mycobacterium tuberculosis H37Rv ATCC 27294 expressing luxABCDE operon incubated for 10 days under hypoxic conditions followed by incubation under aerobic conditions for 28 hrs by LORA method; type: functional, organism-based
[8] = test system: Mycobacterium tuberculosis; test: Antitubercular activity against Mycobacterium tuberculosis H37Rv ATCC 27294 after 5 days measured under aerobic conditions by fluorescence-based assay; type: functional, organism-based; details: H37Rv ATCC 27294, 120 h
[9] = test system: Mycobacterium tuberculosis; test: Bactericidal activity against Mycobacterium tuberculosis H37Rv ATCC 27294 assessed as minimum concentration required to achieve a 2-log kill measured after 21 days under hypoxic conditions; type: functional; details: H37Rv ATCC 27294, 504 h
[10] = test system: Mycobacterium tuberculosis; test: Antitubercular activity against Mycobacterium tuberculosis INH-R2 ATCC 35822 after 5 days by fluorescence-based assay; type: functional; details: INH-R2 ATCC 35822, 120 h
[11] = Cytotoxicity against African green monkey Vero cells assessed as reduction in cell viability after 2 days by cell-titer-glo luminescent assay; type: cell-based; details: chlorocebus sabaeus, read-out: TC50
[12] = test system: Mycobacterium tuberculosis; test: Antitubercular activity against Mycobacterium tuberculosis H37Rv ATCC 27294 expressing […] infected in mouse J774 cells assessed as log reduction in intracellular bacterial burden at 200 uM after 4 days by luminescence assay; type: functional
[13] = test system: Mycobacterium tuberculosis; test: Antitubercular activity against Mycobacterium tuberculosis RIF-R2 ATCC 35828 after 5 days by fluorescence-based assay; type: functional; details: RIF-R2 ATCC 35828, 120 h
[14] = test system: Mycobacterium tuberculosis; test: Bactericidal activity against Mycobacterium tuberculosis H37Rv ATCC 27294 assessed as minimum concentration required to achieve a 2-log kill measured after 21 days; type: functional
[15] = test system: Mycobacterium tuberculosis; test: Antitubercular activity against Mycobacterium tuberculosis H37Rv ATCC 27294 expressing […] infected in mouse J774 cells assessed as log reduction in intracellular bacterial burden at 0.6 uM after 4 days by luminescence assay; type: functional
[16] = test system: Mycobacterium tuberculosis; test: Antitubercular activity against Mycobacterium tuberculosis H37Rv ATCC 27294 expressing […] infected in mouse J774 cells assessed as log reduction in intracellular bacterial burden at 30 uM after 4 days by luminescence assay; type: functional
[17] = Selectivity index, ratio of TC50 for African green monkey Vero cells to MIC for Mycobacterium tuberculosis H37Rv ATCC 27294 expressing luxABCDE operon; type: toxicity; details: read-out: Selectivity Index
[18] = test system: Mycobacterium tuberculosis; test: Antitubercular activity against Mycobacterium tuberculosis H37Rv ATCC 27294 expressing […] infected in mouse J774 cells assessed as log reduction in intracellular bacterial burden at 20 uM after 4 days by luminescence assay; type: functional

Structure (SMILES) | Ratio IC50 (Trypanosoma cruzi [1]) | selectivity ratio [2] | selectivity ratio [3] | IC50 (L6) | IC50 (Trypanosoma cruzi [4]) | IC50 [5] | MIC [7] | IC50 [8] | IC90 [8] | MIC [8] | other results
Clc1cccc2c(NCCCCn3cncn3)ccnc12 | 0.05 | 2.8 | 0.8 | 37.7 µM | 48.6 µM | 13.5 µM |  |  |  |  | 
O=[N+]([O-])c1ncn(CCCCNc2ccnc3c(Cl)cccc23)n1 | 3.9 | 1940 | 128 | 73.6 µM | 0.574 µM | 0.038 µM | > 100 µM | > 200 µM | > 200 µM | > 200 µM | Activity [6]: 82%
O=[N+]([O-])c1cn2c(n1)OC[C@@H](OCc1ccc(OC(F)(F)F)cc1)C2 [PRETOMANID] |  |  |  |  |  |  |  |  |  |  | MBC [9]: 17.8 to 35.7 µM (≈ 6.39 to 12.8 µg/mL)
O=[N+]([O-])c1nccn1CCCCNc1ncnc2ccccc12 | 0.96 | 3.5 | 3.9 | 8.96 µM | 2.32 µM | 2.58 µM | 9.18 µM (≈ 2.87 µg/mL) | > 200 µM | > 200 µM | > 200 µM | 
Cc1ncc([N+](=O)[O-])n1CCO [METRONIDAZOLE] |  |  |  |  |  |  | 200 µM (≈ 34.2 µg/mL) | > 200 µM | > 200 µM | > 200 µM | IC50 [7]: 36 µM; IC90 [7]: 82 µM
O=[N+]([O-])c1nccn1CCCNc1ccnc2c(Cl)cccc12 | 2.02 | 83 | 97 | 107 µM | 1.11 µM | 1.29 µM | 2.89 µM (≈ 0.959 µg/mL) | > 200 µM | > 200 µM | > 200 µM | 
O=[N+]([O-])c1ncn(CCCCNc2ncnc3ccccc23)n1 | 2.57 | 88 | 39 | 34.4 µM | 0.872 µM | 0.39 µM | > 100 µM | 51 µM | 140 µM | 200 µM (≈ 62.7 µg/mL) | MIC [10]: > 200 µM; Activity [6]: 76%; IC50 [7]: 11 µM; IC90 [7]: > 100 µM; CC50 at 48 h [11]: > 100 µM; log(activity) [12]: 0.7; MIC [13]: > 200 µM; MBC ([14]; H37Rv ATCC 27294, 504 h): 100 µM (≈ 31.3 µg/mL)
O=[N+]([O-])c1nccn1CCCNc1ncnc2ccccc12 | 1.11 | 2.9 | 21 | 38.6 µM | 1.83 µM | 13.2 µM |  |  |  |  | 
NNC(=O)c1ccncc1 [ISONIAZID] |  |  |  |  |  |  |  |  |  |  | MIC [10]: > 200 µM; log(activity) [15]: 2.7; MIC [13]: 0.67 µM (≈ 0.0919 µg/mL); log(activity) [16]: 2.6
CO[C@H]1/C=C/O[C@@]2(C)Oc3c(C)c(O)c4c(O)c(c(/C=N/N5CCN(C)CC5)c(O)c4c3C2=O)NC(=O)/C(C)=C\C=C\[C@H](C)[C@H](O)[C@@H](C)[C@@H](O)[C@@H](C)[C@H](OC(C)=O)[C@@H]1C [RIFAMPIN] |  |  |  |  |  |  | 0.022 µM (≈ 0.0181 µg/mL) | 0.0046 µM | 0.0049 µM | 0.015 µM (≈ 0.0123 µg/mL) | MIC [10]: 0.011 µM (≈ 0.00905 µg/mL); IC50 [7]: 0.00072 µM; IC90 [7]: 0.0037 µM; MIC [13]: > 50 µM
Cl.O=[N+]([O-])c1nccn1CCCCNc1ccnc2cc(Cl)ccc12 | 0.64 | 36 | 19 |  |  | 1.87 µM |  |  |  | > 128 µM | MBC [9]: 12.8 to 25.7 µM; CC50 at 48 h [11]: > 1680 µM
Cl.O=[N+]([O-])c1ncn(CCCNc2ccnc3cc(Cl)ccc23)n1 | 2.2 |  |  |  |  | 0.309 µM |  |  |  |  | 
Cl.O=[N+]([O-])c1nccn1CCCNc1ccnc2cc(Cl)ccc12 | 2.15 | 18 | 24 |  |  | 1.4 µM |  |  |  | > 128 µM | MBC [9]: 8.4 to 50 µM; CC50 at 48 h [11]: 399 µM
C[C@H]1COc2c(N3CCN(C)CC3)c(F)cc3c(=O)c(C(=O)O)cn1c23.C[C@H]1COc2c(N3CCN(C)CC3)c(F)cc3c(=O)c(C(=O)O)cn1c23.O [LEVOFLOXACIN] |  |  |  |  |  |  |  |  |  |  | MIC [10]: 1.3 µM; MIC [13]: 1.4 µM
O=[N+]([O-])c1nccn1CCCCNc1ccnc2c(Cl)cccc12 | 1.1 | 29 | 18 | 36.2 µM | 2.04 µM | 1.27 µM | 4.14 µM (≈ 1.43 µg/mL) | 41 µM | > 200 µM | > 200 µM | MIC [10]: > 200 µM; selectivity ratio [17]: 16; IC50 [7]: 0.15 µM; IC90 [7]: 0.84 µM; CC50 at 48 h [11]: 66 µM; MIC [13]: > 200 µM; log(activity) [18]: 1.5; MBC [14]: inactive
O=C(Cn1ccnc1[N+](=O)[O-])NCc1ccccc1 [BENZNIDAZOLE] |  |  |  |  | 2.24 µM |  |  |  |  |  | 
Cl.O=[N+]([O-])c1ncn(CCCCNc2ccnc3cc(Cl)ccc23)n1 | 9.6 | 710 | 979 |  |  | 0.193 µM |  |  |  |  | 
